18 compounds from US9505786B2, “Substituted annulated triazines and use thereof” (BAYER INTELLECTUAL PROPERTY GMBH, priority 2012, dated 2016) can be followed below.

In one test the test system is aorta rings. As to the kind of experiment: Vasorelaxant effect in vitro (phenylephrine-contracted aorta rings). Particulars: rabbit aorta rings, organ bath, phenylephrine contraction; read-out: IC50 (concentration needed to reduce the phenylephrine contraction by 50%). The protocol: B-1. Vasorelaxant Effect In Vitro
Rabbits are stunned by a blow to the neck and exsanguinated. The aorta is removed, freed from adhering tissue and divided into rings of a width of 1.5 mm. The rings are placed individually under an initial tension in 5 ml organ baths with Krebs-Henseleit solution which is at 37° C., is gassed with carbogen and has the following composition (in each case mM): sodium chloride: 119; potassium chloride: 4.8; calcium chloride dihydrate: 1; magnesium sulphate heptahydrate: 1.4; potassium dihydrogenphosphate: 1.2; sodium bicarbonate: 25; glucose: 10. The contractile force is determined with Statham UC2 cells, amplified and digitalized using A/D transducers (DAS-1802 HC, Keithley Instruments Munich), and recorded in parallel on linear recorders.
To produce a contraction, phenylephrine is added to the bath cumulatively in increasing concentration. After several control cycles, the substance to be investigated is added in each further run in increasing dosage in each case, and the height of the contraction achieved is compared with the height of the contraction reached in the last preceding run. This is used to calculate the concentration needed to reduce the magnitude of the control value by 50% (IC50 value). The standard administration volume is 5 μl; the DMSO content in the bath solution corresponds to 0.1%.

The target in test [1] is human phosphodiesterase 5 (PDE 5) (Homo sapiens (Human), UniProt O76074). Description: Inhibition of human phosphodiesterase 5 (PDE 5), SPA assay. The format is biochemical. Particulars: PDE 5 preparation from human platelets, [8-3H] cGMP substrate. The protocol: B-6. Inhibition of Human Phosphodiesterase 5 (PDE 5)
PDE 5 preparations are obtained from human platelets by disruption (Microfluidizer®, 800 bar, 3 passes), followed by centrifugation (75 000 g, 60 min, 4° C.) and ion exchange chromatography of the supernatant on a Mono Q 10/10 column (linear sodium chloride gradient, elution with a 0.2-0.3M solution of sodium chloride in buffer (20 mM Hepes pH 7.2, 2 mM magnesium chloride). Fractions having PDE 5 activity are combined (PDE 5 preparation) and stored at −80° C.
To determine their in vitro action on human PDE 5, the test substances are dissolved in 100% DMSO and serially diluted. Typically, dilution series (1:3) from 200 μM to 0.091 μM are prepared (resulting final concentrations in the test: 4 μM to 0.0018 μM). In each case 2 μl of the diluted substance solutions are placed into the wells of microtitre plates (Isoplate-96/200W; Perkin Elmer). Subsequently, 50 μl of a dilution of the above-described PDE 5 preparation are added. The dilution of the PDE 5 preparation is chosen such that during the later incubation less than 70% of the substrate are converted (typical dilution: 1:100; dilution buffer: 50 mM Tris/hydrochloric acid pH 7.5, 8.3 mM magnesium chloride, 1.7 mM EDTA, 0.2% BSA). The substrate, [8-^3H] cyclic guanosine-3′,5′-monophosphate (1 μCi/μl; Perkin Elmer) is diluted 1:2000 with assay buffer (50 mM tris/hydrochloric acid pH 7.5, 8.3 mM magnesium chloride, 1.7 mM EDTA) to a concentration of 0.0005 μCi/μl. By addition of 50 μl (0.025 μCi) of the diluted substrate, the enzyme reaction is finally started. The test mixtures are incubated at room temperature for 60 min and the reaction is stopped by adding 25 μl of a suspension of 18 mg/ml yttrium scintillation proximity beads in water (phosphodiesterase beads for SPA assays, RPNQ 0150, Perkin Elmer). The microtitre plates are sealed with a film and left to stand at room temperature for 60 min. Subsequently, the plates are analysed for 30 s per well in a Microbeta scintillation counter (Perkin Elmer). IC50 values are determined using the graphic plot of the substance concentration against percentage PDE 5 inhibition.

For test [2], the system named is recombinant guanylate cyclase reporter cell line. Description: Effect on a recombinant guanylate cyclase reporter cell line. The format is cell-based. The protocol: B-2. Effect on a Recombinant Guanylate Cyclase Reporter Cell Line
The cellular activity of the compounds according to the invention is determined using a recombinant guanylate cyclase reporter cell line, as described in F. Wunder et al., Anal. Biochem. 339, 104-112 (2005).

Molecules are shown by their SMILES.

In the case of `CC1(CC2CC2)C(=O)Nc2nc(-c3nn(Cc4ccccc4F)c4ncc(F)cc34)nnc21` (single isomer, unassigned) [Example 5-1, 7-(Cyclopropylmethyl)-3-[5-fluoro-1-(2-fluorobenzyl)-1H-pyrazolo[3,4-b]pyridin-3-yl]-7-methyl-5,7-dihydro-6H-pyrrolo[2,3-e][1,2,4]triazin-6-one], the values for the IC50 (in the test with aorta rings; in test [1]) were 321 nM and 350 nM, respectively.
Consider `CCOC(=O)C1C(=O)Nc2nc(-c3nn(Cc4ccccc4F)c4ncccc34)nnc21` (racemic) [Example 25, (rac) Ethyl 3-[1-(2-fluorobenzyl)-1H-pyrazolo[3,4-b]pyridin-3-yl]-6-oxo-6,7-dihydro-5H-pyrrolo[2,3-e][1,2,4]triazine-7-carboxylate], for which the “MEC (minimum effective concentration)” value in test [2] is given as 100 nM. In test [1], the IC50 came out at 1500 nM.
With `CC1(CC(=O)O)C(=O)Nc2nc(-c3nn(Cc4ccccc4F)c4ncc(F)cc34)nnc21` (racemic) [Example 52, (rac){3-[5-Fluoro-1-(2-fluorobenzyl)-1H-pyrazolo[3,4-b]pyridin-3-yl]-7-methyl-6-oxo-6,7-dihydro-5H-pyrrolo[2,3-e][1,2,4]triazin-7-yl}acetic acid], in test [2], the “MEC (minimum effective concentration)” value came out at 1000 nM. Besides, the IC50 in test [1] was 3900 nM.
In the case of `Cc1nc2c(cc1F)c(-c1nnc3c(n1)NC(=O)C3(C)C)nn2Cc1ccccc1F` [Example 21, 3-[5-Fluoro-1-(2-fluorobenzyl)-6-methyl-1H-pyrazolo[3,4-b]pyridin-3-yl]-7,7-dimethyl-5,7-dihydro-6H-pyrrolo[2,3-e][1,2,4]triazin-6-one], the “MEC (minimum effective concentration)” value in test [2] is recorded as 30 nM. In test [1], the IC50 came out at 22 nM.
For `CC1(C)C(=O)Nc2nc(-c3nn(Cc4ccccc4F)c4ncccc34)nc(CC(N)=O)c21` [Example 61, 2-{2-[1-(2-Fluorobenzyl)-1H-pyrazolo[3,4-b]pyridin-3-yl]-5,5-dimethyl-6-oxo-6,7-dihydro-5H-pyrrolo[2,3-d]pyrimidin-4-yl}acetamide] the same measures were 30 nM and 15 nM.
Consider `CCOC(=O)C1(C)CC(=O)Nc2nc(-c3nn(Cc4ccccc4F)c4ncccc34)nnc21` (stereo not drawn) [Example 2, Ethyl 3-[1-(2-fluorobenzyl)-1H-pyrazolo[3,4-b]pyridin-3-yl]-8-methyl-6-oxo-5,6,7,8-tetrahydropyrido[2,3-e][1,2,4]triazine-8-carboxylate], for which the “MEC (minimum effective concentration)” value in test [2] came out at 300 nM. The compound also displayed an IC50 in test [1] of 490 nM.
For `CCOC(=O)/C=C/c1nc(-c2nn(Cc3ccccc3F)c3ncccc23)nc2c1C(C)(C)C(=O)N2` [Example 27, Ethyl 3-{2-[1-(2-fluorobenzyl)-1H-pyrazolo[3,4-b]pyridin-3-yl]-5,5-dimethyl-6-oxo-6,7-dihydro-5H-pyrrolo[2,3-d]pyrimidin-4-yl}acrylate], in test [2], the “MEC (minimum effective concentration)” value turned out to be 300 nM. The IC50 in test [1] was 215 nM.
For `Cc1nc(-c2nn(Cc3ccccc3F)c3ncccc23)nc2c1C(C)(C)C(=O)N2` [Example 22, 2-[1-(2-Fluorobenzyl)-1H-pyrazolo[3,4-b]pyridin-3-yl]-4,5,5-trimethyl-5,7-dihydro-6H-pyrrolo[2,3-d]pyrimidin-6-one] the same measures were 100 nM and 130 nM.
The matching figures for `CCOC(=O)C#Cc1nc(-c2nn(Cc3ccccc3F)c3ncccc23)nc2c1C(C)(C)C(=O)N2` [Example 53, Ethyl 3-{2-[1-(2-fluorobenzyl)-1H-pyrazolo[3,4-b]pyridin-3-yl]-5,5-dimethyl-6-oxo-6,7-dihydro-5H-pyrrolo[2,3-d]pyrimidin-4-yl}prop-2-ynoate]: 100 nM and 41 nM.
For `COc1ccc(Cn2nc(-c3nnc4c(n3)NC(=O)C4(C)C)c3cc(F)cnc32)cc1` [Example 8, 3-[5-Fluoro-1-(4-methoxybenzyl)-1H-pyrazolo[3,4-b]pyridin-3-yl]-7,7-dimethyl-5,7-dihydro-6H-pyrrolo[2,3-e][1,2,4]triazin-6-one] the same measures were 3000 nM and 150 nM.
Take `CC1(C)C(=O)Nc2nc(-c3nn(Cc4ccccc4F)c4ncc(F)cc34)nc(CN3CCCC3=O)c21` [Example 54, 2-[5-Fluoro-1-(2-fluorobenzyl)-1H-pyrazolo[3,4-b]pyridin-3-yl]-5,5-dimethyl-4-[(2-oxopyrrolidin-1-yl)methyl]-5,7-dihydro-6H-pyrrolo[2,3-d]pyrimidin-6-one]: in test [2], the “MEC (minimum effective concentration)” value is 100 nM. This compound also yielded an IC50 in test [1] of 145 nM.
With `CC1(C)C(=O)Nc2nc(-c3nn(Cc4ccccc4F)c4ncc(F)cc34)nc(CNS(=O)(=O)C3CC3)c21` [Example 55, N-({2-[5-Fluoro-1-(2-fluorobenzyl)-1H-pyrazolo[3,4-b]pyridin-3-yl]-5,5-dimethyl-6-oxo-6,7-dihydro-5H-pyrrolo[2,3-d]pyrimidin-4-yl}methyl)cyclopropanesulphonamide], in test [2], the “MEC (minimum effective concentration)” value stood at 30 nM. In test [1], this compound gave an IC50 of 190 nM.
In the case of `CC1(C)C(=O)Nc2nc(-c3nn(Cc4ccccc4F)c4nc(C(F)(F)F)ccc34)nnc21` [Example 19, 3-[1-(2-Fluorobenzyl)-6-(trifluoromethyl)-1H-pyrazolo[3,4-b]pyridin-3-yl]-7,7-dimethyl-5,7-dihydro-6H-pyrrolo[2,3-e][1,2,4]triazin-6-one], the “MEC (minimum effective concentration)” value in test [2] stood at 1000 nM. Further, the IC50 in test [1] came to 38 nM.
`C=CCCC1(C)C(=O)Nc2nc(-c3nn(Cc4ccccc4F)c4ncccc34)nnc21` (racemic) [Example 23, (rac) (7S)-7-(But-3-en-1-yl)-3-[1-(2-fluorobenzyl)-1H-pyrazolo[3,4-b]pyridin-3-yl]-7-methyl-5,7-dihydro-6H-pyrrolo[2,3-e][1,2,4]triazin-6-one]: the “MEC (minimum effective concentration)” value in test [2] is 30 nM. For the same compound, in test [1], the IC50 was found to be 140 nM.
Take `CC1(CC(=O)O)C(=O)Nc2nc(-c3nn(Cc4ccccc4F)c4ncccc34)nnc21` (racemic) [Example 26, (rac) {3-[1-(2-Fluorobenzyl)-1H-pyrazolo[3,4-b]pyridin-3-yl]-7-methyl-6-oxo-6,7-dihydro-5H-pyrrolo[2,3-e][1,2,4]triazin-7-yl}acetic acid]: the “MEC (minimum effective concentration)” value in test [2] is 300 nM. This compound also showed an IC50 in test [1] of 3400 nM.
For the compound `CC1(C)C(=O)Nc2nc(-c3nn(Cc4ccccc4F)c4ncccc34)nc(CNS(C)(=O)=O)c21` [Example 24, N-({2-[1-(2-Fluorobenzyl)-1H-pyrazolo[3,4-b]pyridin-3-yl]-5,5-dimethyl-6-oxo-6,7-dihydro-5H-pyrrolo[2,3-d]pyrimidin-4-yl}methyl)methanesulphonamide], in test [2], the “MEC (minimum effective concentration)” value was 30 nM. The compound further displayed an IC50 in test [1] of 48 nM.
For the compound `CC1(C(=O)NC2CC2)C(=O)Nc2nc(-c3nn(CCC(F)(F)F)c4ncccc34)ncc21` (racemic) [Example 49, (rac) N-Cyclopropyl-5-methyl-6-oxo-2-[1-(3,3,3-trifluoropropyl)-1H-pyrazolo[3,4-b]pyridin-3-yl]-6,7-dihydro-5H-pyrrolo[2,3-d]pyrimidine-5-carboxamide], the “MEC (minimum effective concentration)” value in test [2] amounted to 300 nM. Besides, the IC50 in test [1] turned out to be 4000 nM.
As to `CCOC(=O)C1(C)C(=O)Nc2nc(-c3nn(Cc4ccccc4F)c4ncccc34)ncc21` (racemic) [Example 33, (rac) Ethyl 2-[1-(2-fluorobenzyl)-1H-pyrazolo[3,4-b]pyridin-3-yl]-5-methyl-6-oxo-6,7-dihydro-5H-pyrrolo[2,3-d]pyrimidine-5-carboxylate], the “MEC (minimum effective concentration)” value in test [2] turned out to be 10 nM. The IC50 in test [1] was found to be 870 nM.
